Experimental data published in article PMC6602958, “Pharmacokinetics of anti-infectious reagents in silkworms” (Scientific Reports, 2019).
≈ marks a conversion by molar mass, not a printed value. Where two headings read alike, the source gives them in different places.

What was measured:
[1] = Pharmacokinetics of antibiotics in silkworm hemolymph after injection (HPLC); conditions: for HPLC peak area in hemolymph: raw data of Fig. 1; for Cltot (total body clearance): silkworm, injection into hemolymph, dose per compound 10-50 mg/kg
Procedure: Antibiotics were injected into silkworm hemolymph and hemolymph was collected by cutting the legs at the indicated time.
Antibiotics dissolved in saline were injected into the hemolymph of 5th instar silkworms using a 1-mL syringe attached to a 27 G needle. Hemolymph was harvested from abdominal appendages by cutting them with scissors at the indicated time-points after administration, and mixed with an equal volume of acetone. Samples were centrifuged at 15,000 rpm for 5 min at 4 °C, and the supernatants were evaporated with a centrifuge evaporator[18]. The dried materials were dissolved in 50% methanol and filtrated through a 0.45-µm filter. […] The amount of antibiotics in the sample was quantified from the peak area of the chromatogram.

[2] = set-up: method as in PMID 3210270; conditions: sheep, dose 10 mg/kg; cited from earlier work
[3] = rabbit, dose 10 mg/kg; cited from earlier work
cytochrome P450 [4] = assay: Metabolism of luciferin derivatives in cultured silkworm midgut (P450-Glo, luminometer); assay type: in vitro ADME, Bombyx mori (silkworm); conditions: silkworm midgut incubated with luciferin substrate at 30 °C
cytochrome P450 [5] = assay: Metabolism of luciferin-ME by microsomal fractions from the silkworm midgut; assay type: biochemical, Bombyx mori (silkworm); conditions: Lineweaver-Burk plot
Procedure: Silkworms were immersed in buffer (10 mM HEPES/NaOH, 0.9% NaCl, pH7.9), and organs were isolated and homogenized in a buffer (100 mM sodium phosphate, 1 mM EDTA, 2 mM benzamidine, 10% glycerol) by a glass-Teflon homogenizer. The tissue homogenates were centrifuged at 9000 × g for 10 min at 4 °C. The supernatant was further centrifuged at 49,000 rpm for 30 min at 4 °C. The precipitate was suspended in buffer (100 mM sodium phosphate, 1 mM EDTA, 2 mM benzamidine, 10% glycerol) and frozen at −80 °C after flash-freezing with liquid nitrogen until use.
Microsomes and substrates were suspended in final 0.25 ml buffer comprising 0.1 M sodium phosphate buffer (pH 7.5) and 0.1 mM EDTA, and pre-incubated for 5 min at 30 °C. A cytochrome P450 reaction was initiated by adding a NADPH-generating system containing 3.3 mM glucose-6-phosphate, 1.25 mM NADP, 3.3 mM MgCl2, and 0.25 U glucose-6-phosphate dehydrogenase as a final concentration.
Microsome fractions were prepared from the silkworm midgut, and incubated with luciferin-ME for 5 min at 30°C. The reactions were initiated by the addition of an NADPH-regeneration system. Production of luciferin was determined using a luminometer. (a) Titration of luciferin-ME. (b) Lineweaver Burk plot made from the titration curve.

Candida albicans [6] = assay: Silkworm infection model with Candida albicans (ED50); assay type: in vivo, Bombyx mori (silkworm); conditions: silkworm infection model with Candida albicans
Candida albicans [7] = assay: Antifungal activity (MIC) by micro dilution with or without silkworm hemolymph; assay type: cell-based
Procedure: Antimicrobial and antifungal activities of each compound were measured by a micro dilution method[19],[20]. To measure protein binding to antifungal activity, silkworm hemolymph was collected by cutting the pseudopodium using scissors, and centrifuged at 3000 rpm for 5 min at 4 °C.

[8] = human serum; ref Schafer-Korting et al. 27; cited from earlier work
[9] = Protein-binding capacity in silkworm hemolymph (filter unit, HPLC)
cytochrome P450 [10] = assay: Decay of cytochrome P450 substrates in in vitro culture of the silkworm midgut (HPLC); conditions: for HPLC peak area of substrate, Sample 1 / HPLC peak area of substrate, Sample 2: midgut culture, raw data of Fig. 3
Procedure: Silkworm midgut was incubated in medium with cytochrome P450 substrates at 30 °C. The samples were collected, extracted by acetone, and evaporated. The amounts of substrates were determined by HPLC analysis.
Silkworms (5th instar, 5 days) were dissected in a buffer (10 mM HEPES/NaOH, 0.9% NaCl, pH 7.9), and isolated organs were incubated with 3 mL TC-100 medium containing 10% fetal bovine serum, 50 µg/ml gentamicin, and substrates for the metabolic reaction. Whole samples (medium and organ) were homogenized and extracted by equal volumes of acetone followed by evaporation. Extracted samples were dissolved in 50 mM NaOAc buffer and treated with beta-glucosidase to measure the fluorescence of metabolized 7-ethoxycoumarin[6]. […] Samples for HPLC were dissolved in 50% methanol. HPLC analysis was performed using a PEGASIL ODS SP column (φ4.5 mm × 250 mm) with isocratic elution at a flow rate of 1 ml/min.

[11] = read-out: MIC with 10% hemolymph (B), with 10% silkworm hemolymph
[12] = without silkworm hemolymph, read-out: MIC without hemolymph (A)

## CO[C@H]1/C=C/O[C@@]2(C)Oc3c(C)c(O)c4c(O)c(c(/C=N/N5CCN(C)CC5)c(O)c4c3C2=O)NC(=O)/C(C)=C\C=C\[C@H](C)[C@H](O)[C@@H](C)[C@@H](O)[C@@H](C)[C@H](OC(C)=O)[C@@H]1C [Rifampicin]
[1]; 1 min after injection
  HPLC peak area in hemolymph: 1080705
[1]; 10 min after injection
  HPLC peak area in hemolymph: 246911
[1]; 30 min after injection
  HPLC peak area in hemolymph: 125859
[1]; 45 min after injection
  HPLC peak area in hemolymph: 103195
[1]; 75 min after injection
  HPLC peak area in hemolymph: 64446
[1]; 90 min after injection
  HPLC peak area in hemolymph: 59307
[1]; 150 min after injection
  HPLC peak area in hemolymph: 20209
[1]; 180 min after injection
  HPLC peak area in hemolymph: 11026
[1]; 240 min after injection
  HPLC peak area in hemolymph: 4977
[1]; 360 min after injection
  HPLC peak area in hemolymph: 2816
[1]; in vivo
  Time-course of the decrease in concentration in hemolymph (in words): biphasic
[1]; silkworm (Bombyx mori), in vivo
  Difference in total clearance between silkworm and mammal: 10 fold
[1]; two-compartment model
  Cltot (total body clearance): 2.11 mL/g/h
[2]
  Cltot: 0.31 mL/g/h
  Vdss: 1.3 mL/g

## CN(C)[C@@H]1C(O)=C(C(N)=O)C(=O)[C@@]2(O)C(O)=C3C(=O)c4c(O)cccc4[C@@](C)(O)[C@H]3C[C@@H]12 [Tetracycline]
[3]
  Cltot: 0.35 mL/g/h
[1]; 0.1 min after injection
  HPLC peak area in hemolymph: 10505876
[1]; 1 min after injection
  HPLC peak area in hemolymph: 8079061
[1]; 5 min after injection
  HPLC peak area in hemolymph: 4188656
[1]; 10 min after injection
  HPLC peak area in hemolymph: 3076056
[1]; 20 min after injection
  HPLC peak area in hemolymph: 2727973
[1]; 30 min after injection
  HPLC peak area in hemolymph: 1928231
[1]; 60 min after injection
  HPLC peak area in hemolymph: 2239912
[1]; 90 min after injection
  HPLC peak area in hemolymph: 1941121
[1]; 120 min after injection
  HPLC peak area in hemolymph: 1803643
[1]; 180 min after injection
  HPLC peak area in hemolymph: 1414738
[1]; 240 min after injection
  HPLC peak area in hemolymph: 1202608
[1]; after administration into hemolymph, alpha and beta phase, two-compartment model
  Time-course of the decrease in concentration in hemolymph (in words): biphasic
[1]; two-compartment model
  Cltot (total body clearance): 0.07 mL/g/h

## COc1ccc2nc(C3=NC(C(=O)O)CS3)sc2c1 (stereo not drawn) [Luciferin-ME]
Cytochrome P450 [4]
  Production of luciferin (RFU/organ): 58,500 RFU/organ
Cytochrome P450 [5]
  Km: 7.8 µM
  Vmax: 3.0 pmol/min/mg protein

## Clc1ccccc1C(c1ccccc1)(c1ccccc1)n1ccnc1 [Clotrimazole]
Candida albicans [6]
  ED50: > 10 mg/kg
In vitro
  fraction unbound at 10 min, 10 µM: < 0.01
Candida albicans [7]; [11]
  MIC: 1.3 µg/mL (≈ 3.77 µM)
Candida albicans [7]; [12]
  MIC: 0.04 µg/mL (≈ 0.116 µM)

## CC(=O)N1CCN(c2ccc(OCC3COC(Cn4ccnc4)(c4ccc(Cl)cc4Cl)O3)cc2)CC1 (stereo not drawn) [Ketoconazole]
Candida albicans [6]
  ED50: > 10 mg/kg
[8]
  Protein binding (%) mammal: 99%
Candida albicans [7]; [11]
  MIC: 1.3 µg/mL (≈ 2.45 µM)
Candida albicans [7]; [12]
  MIC: 0.04 µg/mL (≈ 0.0753 µM)
[9]
  fraction unbound at 10 min, 10 µM: < 0.01
[9]; silkworm hemolymph
  Protein-binding capacity in silkworm hemolymph (in words): high protein-binding capacities in silkworm hemolymph
Cytochrome P450 [10]; in vitro organ culture, up to 20 h incubation
  Metabolism in the silkworm midgut (in words): metabolized in the silkworm midgut
Cytochrome P450 [10]; 0 h
  HPLC peak area of substrate, Sample 1: 250139
  HPLC peak area of substrate, Sample 2: 234783
Cytochrome P450 [10]; 1 h
  HPLC peak area of substrate, Sample 1: 277669
  HPLC peak area of substrate, Sample 2: 251170
Cytochrome P450 [10]; 4 h
  HPLC peak area of substrate, Sample 1: 205212
  HPLC peak area of substrate, Sample 2: 213216
Cytochrome P450 [10]; 20 h
  HPLC peak area of substrate, Sample 1: 217123
  HPLC peak area of substrate, Sample 2: 164912
